From ChEMBL document CHEMBL1150454, “Synthesis, bioactivity, and DNA-cleaving ability of desferrioxamine B-nalidixic acid and anthraquinone carboxylic acid conjugates” (Bioorg Med Chem Lett, 1995) come the findings set out here.

What all share (type): functional, organism-based
Assay [1] has as its system Plasmodium falciparum. The experiment in a line: In vitro antimalarial activity against Plasmodium falciparum W2; Not significant.
In assay [2] the test system is Plasmodium falciparum. Nature of the assay: In vitro antimalarial activity against Plasmodium falciparum D6; Not significant.
The test system of assay [3] is Plasmodium falciparum. Nature of the assay: In vitro antimalarial activity against Plasmodium falciparum D6.
Assay [4] has as its system Plasmodium falciparum. Nature of the assay: In vitro antimalarial activity against Plasmodium falciparum W2.

By IC50 is commonly meant the concentration that gives 50% inhibition.

Structures are written as SMILES. Converted amounts (≈) assume the structure as drawn.

Turning to `CC(=O)N(O)CCCCCNC(=O)CCC(=O)N(O)CCCCCNC(=O)CCC(=O)N(O)CCCCCNC(=O)c1ccc2c(c1)C(=O)c1ccccc1C2=O`, the IC50 result in the assay on Plasmodium falciparum [1] and with Plasmodium falciparum [2] was “Not Active” each time.
`CCn1cc(C(=O)NCCCCCN(O)C(=O)CCC(=O)NCCCCCN(O)C(=O)CCC(=O)NCCCCCN(O)C(C)=O)c(=O)c2ccc(C)nc21`: the IC50 in the assay on Plasmodium falciparum [3] and with Plasmodium falciparum [4] was approximately 0.6 µg/mL (≈ 0.774 µM) throughout.
